# Measured values reported in PMC10510397, “Development of a Selective Peptide κ-Opioid Receptor Antagonist by Late-Stage Functionalization with Cysteine Staples” (Journal of Medicinal Chemistry, 2023).
# Where a name gives a salt, the structure may show the parent alone. Read-outs that look alike come from different tables or passages of the source. Numbered stars: 1 amine (or outer) side, 2 acyl side, 3 side chain; on linkers, the order of the positions; unused ones are H or OH. Bridge positions count the residues as written; N and C are the ends. Square brackets hold non-standard residues; d marks the D form. Peptide text beside a SMILES is read from it. CH2COCH2 = O=C(C[*:1])C[*:2]; CH2 = C([*:1])[*:2]; Mpa = O=C(O)CCS
# How the values were obtained:
# mouse KOR [1] = target: T1, mouse KOR (Mus musculus, UniProt P33534); experiment: biochemical; type: binding; design: expressed in transfected cells
# mouse KOR [2] = target: T1, mouse KOR; experiment: cell-based; type: cell-based; design: expressed in transfected cells; settings: for EC50: HEK293 cells stably expressing mouse KOR, forskolin 10 μM, n.a. = not active, read-out: potency/efficacy cAMP EC50 ± SD; for Emax: read-out: potency/efficacy cAMP Emax ± SD; for activity at KOR in the functional cAMP assay: agonist mode, ligand on its own, up to concentrations of 10 μM
# mouse KOR [3] = target: T1, mouse KOR; type: cell-based; design: expressed in transfected cells; host or cells: HEK293 (transient co-transfection, 1:10 ratio); settings: 10 μM ligand; compared to dynA1–13-NH2 = 100%
# [4] = stability assay in human serum (RP-HPLC); type: in vitro ADME; settings: 37 °C
# Method: The stability of peptide ligands was determined with human serum from male AB plasma (Sigma) centrifuged at 13,300g for 10 min to remove the lipid content. The supernatant was preincubated at 37 °C for 5 min before 10 μL of a peptide stock solution (3 mg/mL in H2O) was added to 300 μL of serum. A reference solution was prepared in phosphate-buffered saline (PBS) buffer. The serum was incubated at 37 °C and analyzed over a time course of 5 h with 40 μL of aliquots removed at time points T = 0, 15, 30, 60, 90, 120, 240, and 300 min. Each aliquot was quenched with 40 μL of 5 M urea and incubated on ice for 10 min. The proteins were then precipitated with the addition of 40 μL of 20% (w/v) trichloroacetic acid and further incubated on ice for 10 min. The samples were centrifuged for 10 min at 15,000g, and the supernatant was analyzed by analytical RP-HPLC using a Phenomenex Jupiter C18 column (5 μm, 300 Å, 150 × 2 mm) using a linear gradient from 0 to 50% solvent B (90% acetonitrile, 10% H2O, and 0.05% trifluoroacetic acid) and a flow rate of 1 mL/min. The percentage of peptide remaining was determined by the integration of the analyte in comparison to T = 0 min. The peptides were analyzed in triplicate, and data were fitted to an exponential decay curve using GraphPad Prism software.
# DRG neurons = experiment: single-cell calcium microfluorimetry in DRG neurons; type: cell-based, mouse; settings: 0.5 μM pre-applied, U50,488 10 μM
# mice [5] = experiment: radiant heat tail-flick assay; type: in vivo, mouse; settings: 10 mg/kg s.c., 24 h before U50,488 5 mg/kg
# Method: (§1) Breeding, euthanasia, and all procedures of animal handling were performed according to the regulations of animal care and welfare. Experiments were carried out in accordance with the European Communities Council Directive of 24 November 1986 (86/609/EEC). Behavioral experiments were performed in male CD1 mice (8–10 weeks old) purchased from Janvier Labs (Le Genest-Saint-Isle, France). All animal care and experimental procedures were in accordance with the ethical guidelines for the animal welfare standards of the European Communities Council Directive (2010/63/EU) and were approved by the Committee of Animal Care of the Austrian Federal Ministry of Science and Research. […]
# The radiant heat tail-flick test was performed using an UB 37360 Ugo Basile analgesiometer (Ugo Basile s.r.l., Varese, Italy) as described previously.[52] The reaction time required by the mouse to remove its tail after application of the radiant heat was measured and defined as the tail-flick latency (in seconds). Tail-flick latencies were measured before and after s.c. administration of saline (control) or U50,488 (5 mg/kg) (i.e., 30 and 60 min) (test latency, TL). […] The antinociceptive effect (as the percentage of the maximum possible effect, % MPE) was calculated according to the formula = [(TL – BL)/(cutoff time – BL)] × 100 where TL represents the test latency and BL is the basal latency.
# mice [6] = experiment: rotarod test; type: in vivo, mouse; settings: 10 mg/kg s.c., 24 h before U50,488 5 mg/kg; at 30 min
# Method: as §1, with “Research. Mice were group-housed in a temperature-controlled specific pathogen-free room with a 12 h light/dark cycle and with free access to food and water.” for “Research.”
# The rotarod test was performed using the accelerating rotarod treadmill (Acceler Rota-Rod 7650, Ugo Basile s.r.l., Varese, Italy) for mice (diameter 3.5 cm) as described previously.[53] […] The time spent on the drum was recorded for each mouse before (baseline) and at 30 min after s.c. administration of saline (control) or U50,488 (5 mg/kg). […] The rotarod data are expressed as percentage (%) changes from the rotarod latencies obtained before (baseline, BL) and after drug administration (test, TL) calculated as 100 × (TL/BL).
# [7] = 1 nM [3H]-diprenorphine, HEK293 cell membranes stably expressing mouse KOR, read-out: affinity Ki ± SD
# T1 sequence (P33534 whole entry): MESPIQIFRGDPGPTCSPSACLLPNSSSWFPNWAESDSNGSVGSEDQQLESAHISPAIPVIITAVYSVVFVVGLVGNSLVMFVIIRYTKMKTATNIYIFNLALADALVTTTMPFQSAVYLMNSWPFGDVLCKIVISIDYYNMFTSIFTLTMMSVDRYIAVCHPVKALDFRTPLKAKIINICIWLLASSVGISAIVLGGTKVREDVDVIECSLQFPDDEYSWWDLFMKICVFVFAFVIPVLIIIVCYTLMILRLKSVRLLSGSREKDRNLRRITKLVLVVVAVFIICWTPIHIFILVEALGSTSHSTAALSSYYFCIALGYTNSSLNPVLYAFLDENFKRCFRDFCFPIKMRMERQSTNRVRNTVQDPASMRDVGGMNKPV
compound,measurement,setting,value
"CC[C@H](C)[C@@H]1NC(=O)[C@H](CCCNC(=N)N)NC(=O)[C@H](CCCNC(=N)N)NC(=O)[C@H](CC(C)C)NC(=O)[C@H](Cc2ccccc2)NC(=O)CNC(=O)CNC(=O)[C@H](Cc2ccc(O)cc2)NC(=O)CCSCSC[C@@H](C(=O)N[C@@H](CCCCN)C(=O)N[C@@H](CC(C)C)C(=O)N[C@@H](CCCCN)C(N)=O)NC(=O)[C@H](CCCNC(=N)N)NC1=O [CSD-CH2(1,10)-NH2] ([Mpa]YGGFLRRIRCKLK-NH2; linker 1-11 via CH2)",Ki,mouse KOR [1],6 nM
same,Ki,mouse KOR [1]; [7],5.6 nM
same,improvement of KOR affinity by C-terminal amidation,mouse KOR [1]; versus counterpart with C-terminal carboxylic acid,~6 fold
same,EC50,mouse KOR [2],540 nM
same,Emax,mouse KOR [2],49 ± 15%
same,β-arrestin-2 recruitment efficiency (ligand induced BRET),mouse KOR [3],38%
"CC(C)C[C@H](NC(=O)[C@H](CCCCN)NC(=O)[C@@H]1CCCN1C(=O)[C@H](CCCNC(=N)N)NC(=O)[C@@H]1CSCSCCC(=O)N[C@@H](Cc2ccc(O)cc2)C(=O)NCC(=O)NCC(=O)N[C@@H](Cc2ccccc2)C(=O)N[C@@H](CC(C)C)C(=O)N[C@@H](CCCNC(=N)N)C(=O)N[C@@H](CCCNC(=N)N)C(=O)N1)C(=O)N[C@@H](CCCCN)C(=O)O [CSD-CH2(1,8)-OH] ([Mpa]YGGFLRRCRPKLK-OH; linker 1-9 via CH2)",activity at KOR in the functional cAMP assay,mouse KOR [2],inactive
"CC(C)C[C@H](NC(=O)[C@H](CCCCN)NC(=O)[C@@H]1CCCN1C(=O)[C@H](CCCNC(=N)N)NC(=O)[C@@H]1CSCC(=O)CSCCC(=O)N[C@@H](Cc2ccc(O)cc2)C(=O)NCC(=O)NCC(=O)N[C@@H](Cc2ccccc2)C(=O)N[C@@H](CC(C)C)C(=O)N[C@@H](CCCNC(=N)N)C(=O)N[C@@H](CCCNC(=N)N)C(=O)N1)C(=O)N[C@@H](CCCCN)C(=O)O [CSD-ace(1,8)-OH] ([Mpa]YGGFLRRCRPKLK-OH; linker 1-9 via CH2COCH2)",Emax,mouse KOR [2],57 ± 11%
"CC[C@H](C)[C@@H]1NC(=O)[C@H](CCCNC(=N)N)NC(=O)[C@H](CCCNC(=N)N)NC(=O)[C@H](CC(C)C)NC(=O)[C@H](Cc2ccccc2)NC(=O)CNC(=O)CNC(=O)[C@H](Cc2ccc(O)cc2)NC(=O)CCSCSC[C@@H](C(=O)N[C@@H](CCCCN)C(=O)N[C@@H](CC(C)C)C(=O)N[C@@H](CCCCN)C(=O)O)NC(=O)[C@H](CCCNC(=N)N)NC1=O [CSD-CH2(1,10)-OH] ([Mpa]YGGFLRRIRCKLK-OH; linker 1-11 via CH2)",Ki,mouse KOR [1]; [7],31 nM
same,activity at KOR in the functional cAMP assay,mouse KOR [2],inactive
same,β-arrestin-2 recruitment efficiency (ligand induced BRET),mouse KOR [3],less than 25%
"CC[C@H](C)[C@H](NC(=O)[C@H](CCCNC(=N)N)NC(=O)[C@H](CCCNC(=N)N)NC(=O)[C@H](CC(C)C)NC(=O)[C@H](Cc1ccccc1)NC(=O)CNC(=O)CNC(=O)[C@@H](N)Cc1ccc(O)cc1)C(=O)N[C@@H](CCCNC(=N)N)C(=O)N1CCC[C@H]1C(=O)N[C@@H](CCCCN)C(=O)N[C@@H](CC(C)C)C(=O)N[C@@H](CCCCN)C(N)=O [dynA1–13-NH2, Dynorphin (dyn) A1–13 amide trifluoroacetate salt, reference compound]",t1/2 in human serum,[4],4 min
same,EC50,mouse KOR [2],9.1 nM
same,Emax,mouse KOR [2],100%
same,β-arrestin-2 recruitment efficiency (ligand induced BRET),mouse KOR [3],100%
"Oc1ccc2c3c1O[C@H]1c4[nH]c5c(c4C[C@@]4(O)[C@@H](C2)N(CC2CC2)CC[C@]314)C[C@@]1(O)[C@H]2Cc3ccc(O)c4c3[C@@]1(CCN2CC1CC1)[C@H]5O4 [nor-BNI, norbinaltorphimine]","effect on U50,488-induced calcium signals in DRG neurons",DRG neurons,"inhibited the activity of U50,488"
same,"antagonism of U50,488-induced antinociception",mice [5],"blocked the antinociceptive response of U50,488"
same,"antagonism of U50,488 effect in the rotarod test",mice [6],Antagonism
"CC(C)C[C@H](NC(=O)[C@H](CCCCN)NC(=O)[C@@H]1CCCN1C(=O)[C@H](CCCNC(=N)N)NC(=O)[C@@H]1CSCSCCC(=O)N[C@@H](Cc2ccc(O)cc2)C(=O)NCC(=O)NCC(=O)N[C@@H](Cc2ccccc2)C(=O)N[C@@H](CC(C)C)C(=O)N[C@@H](CCCNC(=N)N)C(=O)N[C@@H](CCCNC(=N)N)C(=O)N1)C(=O)N[C@@H](CCCCN)C(N)=O [CSD-CH2(1,8)-NH2] ([Mpa]YGGFLRRCRPKLK-NH2; linker 1-9 via CH2)",t1/2 in human serum,[4],95 min
same,activity at KOR in the functional cAMP assay,mouse KOR [2],inactive
"CC(C)C[C@H](NC(=O)[C@H](CCCCN)NC(=O)[C@@H]1CCCN1C(=O)[C@H](CCCNC(=N)N)NC(=O)[C@@H]1CSCC(=O)CSCCC(=O)N[C@@H](Cc2ccc(O)cc2)C(=O)NCC(=O)NCC(=O)N[C@@H](Cc2ccccc2)C(=O)N[C@@H](CC(C)C)C(=O)N[C@@H](CCCNC(=N)N)C(=O)N[C@@H](CCCNC(=N)N)C(=O)N1)C(=O)N[C@@H](CCCCN)C(N)=O [CSD-ace(1,8)-NH2] ([Mpa]YGGFLRRCRPKLK-NH2; linker 1-9 via CH2COCH2)",Emax,mouse KOR [2],73 ± 14%
